BindingDB's records for doi:10.1016/j.bioorg.2016.12.002 (China Pharmaceutical University, 2017)

Target: Hepatocyte growth factor receptor/Proto-oncogene tyrosine-protein kinase receptor Ret (Homo sapiens, UniProt P07949+P08581)
Experiment: In Vitro c-Met Enzyme Assay
Procedure: The c-Met kinase activity as tested with enzyme-linked immunosorbent assays (ELISAs) as previously reported protocol [Qiang et al., Bioorg. Med. Chem., 24:3353-3358; Shi et al., Bioorg. Med. Chem., 22:4735-4744]. Briefly, reaction cocktail containing c-met kinase and various concentrations of measured compound or 0.1% DMSO (negative control) was incubated at 37 °C for five minutes. Then the mixture of ATP and substrate peptide was added and incubated for another 30 min. Afer that, the reaction was terminated and transferred into a pre-coated 96-well plate, and incubated for another 1 h at 37 °C. Phosphate-buffered saline (PBS) containing 0.1% Tween 20 (T-PBS) was applied to wash the plate three times. anti-phosphotyrosine (PY99) antibody was then added. Horseradish peroxidase-conjugated goat anti-mouse IgG was added after 30 min. Finally, the plate was analyzed with multi-well spectrophotometer at […].

Hepatocyte growth factor receptor/Proto-oncogene tyrosine-protein kinase receptor Ret, sequence (P08581 whole entry): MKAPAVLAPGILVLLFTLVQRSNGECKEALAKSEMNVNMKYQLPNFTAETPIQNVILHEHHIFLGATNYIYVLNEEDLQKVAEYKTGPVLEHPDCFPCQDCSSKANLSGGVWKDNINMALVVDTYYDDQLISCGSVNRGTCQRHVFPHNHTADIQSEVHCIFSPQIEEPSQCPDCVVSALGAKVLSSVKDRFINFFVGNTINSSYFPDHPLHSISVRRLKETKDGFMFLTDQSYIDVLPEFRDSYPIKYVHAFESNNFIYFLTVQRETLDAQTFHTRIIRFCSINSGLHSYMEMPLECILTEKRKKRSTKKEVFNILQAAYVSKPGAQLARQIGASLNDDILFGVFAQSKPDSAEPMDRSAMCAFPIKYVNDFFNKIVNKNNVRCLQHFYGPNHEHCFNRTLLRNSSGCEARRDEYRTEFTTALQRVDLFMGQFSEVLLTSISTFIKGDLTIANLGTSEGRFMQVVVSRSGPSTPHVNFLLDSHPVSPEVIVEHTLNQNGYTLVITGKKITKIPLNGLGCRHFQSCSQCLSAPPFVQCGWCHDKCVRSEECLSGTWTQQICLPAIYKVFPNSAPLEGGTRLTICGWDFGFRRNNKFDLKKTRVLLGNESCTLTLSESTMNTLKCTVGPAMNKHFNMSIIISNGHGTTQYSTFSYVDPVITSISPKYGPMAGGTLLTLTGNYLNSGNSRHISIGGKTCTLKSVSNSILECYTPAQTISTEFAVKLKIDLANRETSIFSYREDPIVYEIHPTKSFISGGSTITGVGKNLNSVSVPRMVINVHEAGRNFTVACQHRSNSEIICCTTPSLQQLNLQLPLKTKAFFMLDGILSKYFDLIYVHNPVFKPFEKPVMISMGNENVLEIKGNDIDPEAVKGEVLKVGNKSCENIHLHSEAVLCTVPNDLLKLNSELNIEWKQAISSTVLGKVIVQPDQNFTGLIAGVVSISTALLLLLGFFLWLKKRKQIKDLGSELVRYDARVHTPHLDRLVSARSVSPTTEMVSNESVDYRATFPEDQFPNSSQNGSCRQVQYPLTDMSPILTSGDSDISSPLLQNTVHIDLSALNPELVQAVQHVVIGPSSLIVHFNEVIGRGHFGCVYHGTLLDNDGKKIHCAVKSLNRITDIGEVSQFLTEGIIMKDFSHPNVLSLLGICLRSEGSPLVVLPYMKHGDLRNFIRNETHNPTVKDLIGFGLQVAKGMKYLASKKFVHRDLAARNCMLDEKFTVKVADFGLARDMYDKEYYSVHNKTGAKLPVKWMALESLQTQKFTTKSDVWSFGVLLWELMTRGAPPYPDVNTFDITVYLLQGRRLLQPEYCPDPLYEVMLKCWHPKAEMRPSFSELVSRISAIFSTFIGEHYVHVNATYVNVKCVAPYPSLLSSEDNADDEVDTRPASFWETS
Hepatocyte growth factor receptor/Proto-oncogene tyrosine-protein kinase receptor Ret, sequence (P07949 whole entry): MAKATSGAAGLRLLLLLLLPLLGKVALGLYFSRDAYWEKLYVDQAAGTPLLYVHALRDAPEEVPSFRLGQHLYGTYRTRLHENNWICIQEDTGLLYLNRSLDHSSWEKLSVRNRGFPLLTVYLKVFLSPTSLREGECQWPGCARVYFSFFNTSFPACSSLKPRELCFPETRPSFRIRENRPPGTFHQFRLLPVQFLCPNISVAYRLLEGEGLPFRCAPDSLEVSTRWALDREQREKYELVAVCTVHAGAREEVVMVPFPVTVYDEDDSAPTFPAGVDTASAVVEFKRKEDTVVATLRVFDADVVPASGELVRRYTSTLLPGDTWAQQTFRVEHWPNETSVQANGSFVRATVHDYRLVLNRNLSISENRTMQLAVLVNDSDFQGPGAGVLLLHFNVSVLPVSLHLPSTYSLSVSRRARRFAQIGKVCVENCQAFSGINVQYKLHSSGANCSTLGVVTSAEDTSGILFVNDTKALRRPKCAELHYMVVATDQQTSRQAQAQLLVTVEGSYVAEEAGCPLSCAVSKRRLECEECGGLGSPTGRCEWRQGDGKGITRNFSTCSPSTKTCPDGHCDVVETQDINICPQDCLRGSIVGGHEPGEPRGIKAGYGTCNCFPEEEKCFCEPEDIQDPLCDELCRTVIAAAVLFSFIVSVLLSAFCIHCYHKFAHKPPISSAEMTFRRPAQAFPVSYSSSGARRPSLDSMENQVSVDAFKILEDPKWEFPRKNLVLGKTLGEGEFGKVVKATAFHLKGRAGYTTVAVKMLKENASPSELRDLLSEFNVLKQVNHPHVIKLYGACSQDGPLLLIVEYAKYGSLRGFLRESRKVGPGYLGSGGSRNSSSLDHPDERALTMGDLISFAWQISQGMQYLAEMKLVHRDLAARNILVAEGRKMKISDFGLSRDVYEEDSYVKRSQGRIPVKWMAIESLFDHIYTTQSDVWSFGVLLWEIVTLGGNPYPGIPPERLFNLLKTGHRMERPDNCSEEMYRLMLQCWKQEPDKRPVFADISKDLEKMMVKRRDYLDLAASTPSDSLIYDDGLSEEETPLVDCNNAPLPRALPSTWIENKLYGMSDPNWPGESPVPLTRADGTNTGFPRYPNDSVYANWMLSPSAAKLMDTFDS

IC50 [µM] | SMILES
12.2 | Clc1ccc(-c2cn3cccc(COc4nnc5ccc(Cl)nn45)c3n2)c(Cl)c1 [6-Chloro-3-((2-(2,4-dichlorophenyl)imidazo[1,2-a]pyridin-8-yl)methoxy)-[1,2,4]triazolo[4,3-b] pyridazine (7g)]
12.3 | Clc1ccc(Cl)c(-c2cn3cccc(COc4nnc5ccc(Cl)nn45)c3n2)c1 [6-chloro-3-((2-(2,5-dichlorophenyl)imidazo[1,2-a]pyridin-8-yl)methoxy)-[1,2,4]triazolo[4,3-b] pyridazine (7e)]
0.06 | COc1ccc2c(OCc3nnc4ccc(-c5ccccc5)nn34)ccnc2c1 [7-methoxy-4-({6-phenyl-[1,2,4]triazolo[4,3-a]pyridazin-3-yl}methoxy)quinoline]
